What was measured:
ACHN (renal cancer) = assay: NCI-60 SRB cytotoxicity screen; assay type: cell-based; settings: Homo sapiens, single dose 10 μM, read-out: growth inhibition (GI%)
MCF7 (breast cancer) = assay: NCI-60 SRB cytotoxicity screen; assay type: cell-based; settings: Homo sapiens; MCF7, single dose 10 μM; read-out: growth inhibition (GI%)
[1] = tested on: NCI-H522 (non-small cell lung cancer); assay: NCI-60 SRB cytotoxicity screen; assay type: cell-based; settings: Homo sapiens; NCI-H522, single dose 10 μM; read-out: growth inhibition (GI%)
TK-10 (renal cancer) = assay: NCI-60 SRB cytotoxicity screen; assay type: cell-based; settings: Homo sapiens; TK-10, single dose 10 μM; read-out: growth inhibition (GI%)
[2] = tested on: EKVX (non-small cell lung cancer); assay: NCI-60 SRB cytotoxicity screen; assay type: cell-based; settings: Homo sapiens, single dose 10 μM, read-out: growth inhibition (GI%)
SK-MEL-5 (melanoma) = assay: NCI-60 SRB cytotoxicity screen; assay type: cell-based; settings: Homo sapiens; SK-MEL-5, single dose 10 μM; read-out: growth inhibition (GI%)
RXF 393 (renal cancer) = assay: NCI-60 SRB cytotoxicity screen; assay type: cell-based; settings: Homo sapiens; RXF 393, single dose 10 μM; read-out: growth inhibition (GI%)
[3] = tested on: HOP-62 (non-small cell lung cancer); assay: NCI-60 SRB cytotoxicity screen; assay type: cell-based; settings: Homo sapiens; HOP-62, single dose 10 μM; read-out: growth inhibition (GI%)
RPMI-8226 (leukemia) = assay: NCI-60 SRB cytotoxicity screen; assay type: cell-based; settings: Homo sapiens; RPMI-8226, single dose 10 μM; read-out: growth inhibition (GI%)
PC-3 (prostate cancer) = assay: NCI-60 SRB cytotoxicity screen; assay type: cell-based; settings: PC-3, single dose 10 μM; read-out: growth inhibition (GI%)
SK-MEL-2 (melanoma) = assay: NCI-60 SRB cytotoxicity screen; assay type: cell-based; settings: Homo sapiens; SK-MEL-2, single dose 10 μM; read-out: growth inhibition (GI%)
SW-620 (colon cancer) = assay: NCI-60 SRB cytotoxicity screen; assay type: cell-based; settings: Homo sapiens; SW-620, single dose 10 μM; read-out: growth inhibition (GI%)
MDA-MB-435 (melanoma) = assay: NCI-60 SRB cytotoxicity screen; assay type: cell-based; settings: Homo sapiens, MDA-MB-435, read-out: growth inhibition (GI%);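 further: growth inhibition in percent at a single 10 µM dose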
SR (leukemia) = assay: NCI-60 SRB cytotoxicity screen; assay type: cell-based; settings: single dose 10 μM, read-out: growth inhibition (GI%)
SK-OV-3 (ovarian cancer) = assay: NCI-60 SRB cytotoxicity screen; assay type: cell-based; settings: Homo sapiens; SK-OV-3, single dose 10 μM; read-out: growth inhibition (GI%)
CAKI-1 (renal cancer) = assay: NCI-60 SRB cytotoxicity screen; assay type: cell-based; settings: Homo sapiens; CAKI-1, single dose 10 μM; read-out: growth inhibition (GI%)
[4] = tested on: HOP-92 (non-small cell lung cancer); assay: NCI-60 SRB cytotoxicity screen; assay type: cell-based; settings: Homo sapiens; HOP-92, single dose 10 μM; read-out: growth inhibition (GI%)
[5] = tested on: NCI-H460 (non-small cell lung cancer); assay: NCI-60 SRB cytotoxicity screen; assay type: cell-based; settings: Homo sapiens; NCI-H460, single dose 10 μM; read-out: growth inhibition (GI%)
BT-549 (breast cancer) = assay: NCI-60 SRB cytotoxicity screen; assay type: cell-based; settings: Homo sapiens; BT-549, single dose 10 μM; read-out: growth inhibition (GI%)
UACC-62 (melanoma) = assay: NCI-60 SRB cytotoxicity screen; assay type: cell-based; settings: Homo sapiens; UACC-62, single dose 10 μM; read-out: growth inhibition (GI%)
SF-295 (CNS cancer) = assay: NCI-60 SRB cytotoxicity screen; assay type: cell-based; settings: Homo sapiens; SF-295, single dose 10 μM; read-out: growth inhibition (GI%)
HCT-15 (colon cancer) = assay: NCI-60 SRB cytotoxicity screen; assay type: cell-based; settings: Homo sapiens; HCT-15, single dose 10 μM; read-out: growth inhibition (GI%)
HCC-2998 (colon cancer) = assay: NCI-60 SRB cytotoxicity screen; assay type: cell-based; settings: Homo sapiens; HCC-2998, single dose 10 μM; read-out: growth inhibition (GI%)
KM12 (colon cancer) = assay: NCI-60 SRB cytotoxicity screen; assay type: cell-based; settings: Homo sapiens; KM12, single dose 10 μM; read-out: growth inhibition (GI%)
OVCAR-4 (ovarian cancer) = assay: NCI-60 SRB cytotoxicity screen; assay type: cell-based; settings: Homo sapiens; OVCAR-4, single dose 10 μM; read-out: growth inhibition (GI%)
[6] = tested on: A549/ATCC (non-small cell lung cancer); assay: NCI-60 SRB cytotoxicity screen; assay type: cell-based; settings: Homo sapiens, single dose 10 μM, read-out: growth inhibition (GI%)
MALME-3M (melanoma) = assay: NCI-60 SRB cytotoxicity screen; assay type: cell-based; settings: Homo sapiens, single dose 10 μM, read-out: growth inhibition (GI%)
786-0 (renal cancer) = assay: NCI-60 SRB cytotoxicity screen; assay type: cell-based; settings: Homo sapiens; 786-0, single dose 10 μM; read-out: growth inhibition (GI%)
HL-60(TB) (leukemia) = assay: NCI-60 SRB cytotoxicity screen; assay type: cell-based; settings: Homo sapiens, single dose 10 μM, read-out: growth inhibition (GI%)
UACC-257 (melanoma) = assay: NCI-60 SRB cytotoxicity screen; assay type: cell-based; settings: Homo sapiens; UACC-257, single dose 10 μM; read-out: growth inhibition (GI%)

| Compound | inhibition at 10 µM (ACHN (renal cancer)) [%] | inhibition at 10 µM (MCF7 (breast cancer)) [%] | inhibition at 10 µM [1] [%] | inhibition at 10 µM (TK-10 (renal cancer)) [%] | inhibition at 10 µM [2] [%] | inhibition at 10 µM (SK-MEL-5 (melanoma)) [%] | inhibition at 10 µM (RXF 393 (renal cancer)) [%] | inhibition at 10 µM [3] [%] | inhibition at 10 µM (RPMI-8226 (leukemia)) [%] | inhibition at 10 µM (PC-3 (prostate cancer)) [%] | inhibition at 10 µM (SK-MEL-2 (melanoma)) [%] | inhibition at 10 µM (SW-620 (colon cancer)) [%] | inhibition at 10 µM (MDA-MB-435 (melanoma)) [%] | inhibition at 10 µM (SK-OV-3 (ovarian cancer)) [%] | inhibition at 10 µM (CAKI-1 (renal cancer)) [%] | inhibition at 10 µM [4] [%] | inhibition at 10 µM [5] [%] | inhibition at 10 µM (BT-549 (breast cancer)) [%] | inhibition at 10 µM (UACC-62 (melanoma)) [%] | inhibition at 10 µM (SF-295 (CNS cancer)) [%] | also measured |
| --- | --- | --- | --- | --- | --- | --- | --- | --- | --- | --- | --- | --- | --- | --- | --- | --- | --- | --- | --- | --- | --- |
| CCc1cccc2cc(-c3cc(-c4ccc(OC)c(OC)c4)[nH]c(=S)c3C#N)c(Cl)nc12 [Compound 5b, 4-(2-Chloro-8-ethylquinolin-3-yl)-6-(3,4-dimethoxyphenyl)-2-thioxo-1,2-dihydropyridine-3-carbonitrile] | 15.7 | 26.6 | < 10 | < 10 | 23.9 | 21 | 24.6 | < 10 | 29.2 | 21.3 | < 10 | < 10 | < 10 | < 10 | 45.8 | 47.4 | < 10 | 28.2 | 19.1 | 16.5 | inhibition at 10 µM (SR (leukemia)): < 10%; melting point: 280 to 282 °C; inhibition at 10 µM (HCT-15 (colon cancer)): 12.2%; inhibition at 10 µM (HCC-2998 (colon cancer)): < 10%; inhibition at 10 µM (KM12 (colon cancer)): 19.9%; inhibition at 10 µM (OVCAR-4 (ovarian cancer)): 22.4%; inhibition at 10 µM [6]: 19.7%; inhibition at 10 µM (MALME-3M (melanoma)): < 10%; inhibition at 10 µM (786-0 (renal cancer)): 18.7%; inhibition at 10 µM (HL-60(TB) (leukemia)): < 10%; inhibition at 10 µM (UACC-257 (melanoma)): < 10% |
| CCc1cccc2cc(-c3cc(-c4cc(OC)c(OC)c(OC)c4)[nH]c(=S)c3C#N)c(Cl)nc12 [Compound 5c, 4-(2-Chloro-8-ethylquinolin-3-yl)-2-thioxo-6-(3,4,5-trimethoxyphenyl)-1,2-dihydropyridine-3-carbonitrile] | 32.5 | 46.5 | 65.7 | < 10 | 34.9 | 52.2 | 37.3 | 10.6 | 63.1 | 48.9 | 33 | 10 | 24.9 | < 10 | 69.8 | 77.4 | 21.8 | 21.1 | 33.5 | 31 | inhibition at 10 µM (SR (leukemia)): 49%; melting point: 279 to 281 °C; inhibition at 10 µM (HCT-15 (colon cancer)): 29%; inhibition at 10 µM (HCC-2998 (colon cancer)): 33%; inhibition at 10 µM (KM12 (colon cancer)): 37.2%; inhibition at 10 µM (OVCAR-4 (ovarian cancer)): 41.6%; inhibition at 10 µM [6]: 38.1%; inhibition at 10 µM (MALME-3M (melanoma)): < 10%; inhibition at 10 µM (786-0 (renal cancer)): 27.9%; inhibition at 10 µM (HL-60(TB) (leukemia)): 51.8%; inhibition at 10 µM (UACC-257 (melanoma)): 20.1% |
| CCc1cccc2cc(C3C=C(c4ccc(OC)c(OC)c4)NC(=S)N3)c(Cl)nc12 (centres unmarked) [Compound 6b, 4-(2-Chloro-8-ethylquinolin-3-yl)-6-(3,4-dimethoxyphenyl)-3,4-dihydropyrimidine-2(1H)-thione] | < 10 | 15.7 | 22.1 | < 10 | < 10 | 14.1 | < 10 | 11 | 36.1 | < 10 | < 10 | < 10 | < 10 | < 10 | 30.2 | < 10 | < 10 | 12.8 | 10.3 | < 10 | melting point: 237 to 239 °C; inhibition at 10 µM (HCT-15 (colon cancer)): < 10%; inhibition at 10 µM (HCC-2998 (colon cancer)): < 10%; inhibition at 10 µM (KM12 (colon cancer)): < 10%; inhibition at 10 µM (OVCAR-4 (ovarian cancer)): 19.9%; inhibition at 10 µM [6]: < 10%; inhibition at 10 µM (MALME-3M (melanoma)): < 10%; inhibition at 10 µM (786-0 (renal cancer)): < 10%; inhibition at 10 µM (HL-60(TB) (leukemia)): 10.7%; inhibition at 10 µM (UACC-257 (melanoma)): < 10% |
| CCc1cccc2cc(-c3cc(-c4ccc(F)cc4)[nH]c(=O)c3C#N)c(Cl)nc12 [Compound 4d, 4-(2-Chloro-8-ethylquinolin-3-yl)-6-(4-fluorophenyl)-2-oxo-1,2-dihydropyridine-3-carbonitrile] | < 10 | 24.6 | < 10 | < 10 | < 10 | 16.8 | < 10 | < 10 | 14 | < 10 | < 10 | < 10 | < 10 | < 10 | 19.5 | < 10 | < 10 | 17.8 | 16.5 | < 10 | melting point: 260 to 262 °C; inhibition at 10 µM (HCT-15 (colon cancer)): 11.1%; inhibition at 10 µM (HCC-2998 (colon cancer)): < 10%; inhibition at 10 µM (KM12 (colon cancer)): < 10%; inhibition at 10 µM (OVCAR-4 (ovarian cancer)): 11%; inhibition at 10 µM [6]: < 10%; inhibition at 10 µM (MALME-3M (melanoma)): < 10%; inhibition at 10 µM (786-0 (renal cancer)): < 10%; inhibition at 10 µM (HL-60(TB) (leukemia)): < 10%; inhibition at 10 µM (UACC-257 (melanoma)): < 10% |
